Measured values published in patent publication US7396837B2, “Antitumoral analogs of lamellarins” (Pharma Mar, S.A.U., priority 2002, dated 2008).
Read-outs that look alike come from different tables or passages of the source.

What was measured:
Format in all cases: cell-based
PANC-1 = assay: SRB colorimetric cell growth inhibition assay, PANC-1; conditions: Homo sapiens; for GI50: GI=growth inhibition, read-out: GI50 PANC-1; for IC (TGI): read-out: TGI PANC-1
How it was run: (§1)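 Triplicate-well SRB colorimetry following continuous sample exposure of human tumour cells; reported parameters are GI, TGI for cytostatic effect, and LC for cytotoxic effect.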

LoVo-Dox = assay: SRB colorimetric cell growth inhibition assay, LoVo-Dox (MDR); conditions: Homo sapiens; for GI50: GI=growth inhibition, read-out: GI50 LOVO-DOX; for IC (TGI): read-out: TGI LOVO-DOX
How it was run: as §1

DU-145 = assay: SRB colorimetric cell growth inhibition assay, DU-145; conditions: for GI50: GI=growth inhibition, read-out: GI50 DU-145; for CC50: cell killing (cytotoxic effect)
How it was run: as §1

LoVo = assay: SRB colorimetric cell growth inhibition assay, LoVo; conditions: Homo sapiens, LoVo; for GI50: GI=growth inhibition, read-out: GI50 LOVO; for IC (TGI): read-out: TGI LOVO
How it was run: as §1

LNCaP = assay: SRB colorimetric cell growth inhibition assay, LNCaP; conditions: Homo sapiens, LNCaP; for GI50: GI=growth inhibition, read-out: GI50 LN-caP; for CC50: cell killing (cytotoxic effect); for IC (TGI): total growth inhibition (cytostatic effect), read-out: TGI LN-caP
How it was run: as §1

K-562 = assay: SRB colorimetric cell growth inhibition assay, K-562; conditions: for GI50: GI=growth inhibition, read-out: GI50 K-562; for IC (TGI): read-out: TGI K-562
How it was run: as §1

SK-MEL-28 = assay: SRB colorimetric cell growth inhibition assay, SK-MEL-28; conditions: for GI50: GI=growth inhibition, read-out: GI50 MEL-28; for CC50: cell killing (cytotoxic effect); for IC (TGI): total growth inhibition (cytostatic effect), read-out: TGI MEL-28
How it was run: as §1

IGROV-ET = assay: SRB colorimetric cell growth inhibition assay, IGROV-ET (ET-743 resistant); conditions: Homo sapiens; for GI50: GI=growth inhibition, read-out: GI50 IGROV-ET; for CC50: cell killing (cytotoxic effect); for IC (TGI): total growth inhibition (cytostatic effect), read-out: TGI IGROV-ET
How it was run: as §1

SKOV-3 = assay: SRB colorimetric cell growth inhibition assay, SKOV-3; conditions: Homo sapiens; for GI50: SK-OV-3, SKOV-3, GI=growth inhibition, read-out: GI50 SKOV-3; for IC (TGI): total growth inhibition (cytostatic effect), read-out: TGI SKOV-3
Source text: (§2) A colorimetric type of assay, using sulforhodamine B (SRB) reaction has been adapted for a quantitative measurement of cell growth and viability (following the technique described by P. A. Skehan, et al., J. Natl. Cancer Inst. 1990, 82, 1107-1112).
(§3) This form of assay employs 96 well cell culture microplates of 9 mm diameter (T. Mosmann et al., J. of Immunological Methods 1983, 65, 55-63; G. T. Faircloth et al., J. of Tissue and Culture Methods 1988, 11, 201-205).
(§4) Most of the cell lines are obtained from American Type Culture Collection (ATCC) derived from different human cancer types.
(§5) The values for mean +/− SD of data from triplicate wells are calculated. Some parameters for cellular responses can be calculated: GI=growth inhibition, TGI=total growth inhibition (cytostatic effect) and LC=cell killing (cytotoxic effect).

SK-BR-3 = assay: SRB colorimetric cell growth inhibition assay, SK-BR-3; conditions: for GI50: GI=growth inhibition, read-out: GI50 SK-BR-3; for CC50: cell killing (cytotoxic effect); for IC (TGI): total growth inhibition (cytostatic effect), read-out: TGI SK-BR-3
How it was run: as §1

IGROV = assay: SRB colorimetric cell growth inhibition assay, IGROV; conditions: IGROV; for GI50: GI=growth inhibition, read-out: GI50 IGROV; for CC50: cell killing (cytotoxic effect)
How it was run: as §1

HT-29 = assay: SRB colorimetric cell growth inhibition assay, HT-29; conditions: for GI50: GI=growth inhibition, read-out: GI50 HT-29; for IC (TGI): read-out: TGI HT-29
How it was run: as §1

[1] = SRB colorimetric cell growth inhibition assay, H-MEC-1; conditions: human
Source text: as §2, §3, §4, §5

H-MEC-1 = assay: as above; conditions: Homo sapiens, HMEC-1, H-MEC-1; for GI50: GI=growth inhibition, read-out: GI50 H-MEC-1; for IC (TGI): total growth inhibition (cytostatic effect), read-out: TGI H-MEC-1
Source text: as §2, §3, §4, §5

A-549 = assay: SRB colorimetric cell growth inhibition assay, A-549; conditions: Homo sapiens; for GI50: GI=growth inhibition, read-out: GI50 A-549; for IC (TGI): read-out: TGI A-549
How it was run: as §1

[2] = total growth inhibition (cytostatic effect)
[3] = Homo sapiens, SK-MEL-28, MEL-28

In the case of COc1cc(-c2c3c4cc(OC)c(O)cc4oc(=O)c3n3ccc4cc(OC)c(OC)cc4c23)ccc1O [Compound 26], the GI50 (PANC-1; PANC-1, PANC-1) is reported as 1.07 µM, the CC50 (PANC-1; PANC-1, PANC-1, cell killing (cytotoxic effect), read-out: LC50 PANC-1) is reported as 19.5 µM and the IC (TGI) (PANC-1; PANC-1, PANC-1, total growth inhibition (cytostatic effect)) is reported as 8.8 µM. The GI50 (LoVo-Dox; LOVO-DOX) was 0.867 µM, the CC50 (LoVo-Dox; LOVO-DOX, cell killing (cytotoxic effect), read-out: LC50 LOVO-DOX) was 19.5 µM and the IC (TGI) (LoVo-Dox; LOVO-DOX, total growth inhibition (cytostatic effect)) was 7.63 µM. The GI50 (DU-145; Homo sapiens, DU-145, DU-145) was 0.611 µM, the CC50 (DU-145; Homo sapiens, DU-145, DU-145, read-out: LC50 DU-145) was 19.5 µM and the IC (TGI) (DU-145; Homo sapiens, DU-145, DU-145, total growth inhibition (cytostatic effect), read-out: TGI DU-145) was 2.94 µM. It also gave a GI50 (LoVo) of 1.19 µM, a CC50 (LoVo; cell killing (cytotoxic effect), read-out: LC50 LOVO) of 19.5 µM and an IC (TGI) (LoVo; [2]) of 10 µM. The GI50 (LNCaP; LN-caP) was 0.711 µM, the CC50 (LNCaP; LN-caP, read-out: LC50 LN-caP) was 14.7 µM and the IC (TGI) (LNCaP; LN-caP) was 4.3 µM. The GI50 (K-562; Homo sapiens, K562, K-562) was 0.785 µM, the CC50 (K-562; Homo sapiens, K562, K-562, cell killing (cytotoxic effect), read-out: LC50 K-562) was 16.1 µM and the IC (TGI) (K-562; Homo sapiens, K562, K-562, total growth inhibition (cytostatic effect)) was 3.41 µM. It also gave a GI50 (SK-MEL-28; [3]) of 2.08 µM, a CC50 (SK-MEL-28; Homo sapiens, SK-MEL-28, MEL-28, read-out: LC50 MEL-28) of 19.5 µM and an IC (TGI) (SK-MEL-28; [3]) of 7.79 µM. For the same molecule, the GI50 (IGROV-ET; IGROV-ET) was 0.574 µM, the CC50 (IGROV-ET; IGROV-ET, read-out: LC50 IGROV-ET) was 19.5 µM and the IC (TGI) (IGROV-ET; IGROV-ET) was 2.08 µM. The GI50 (SKOV-3) was 0.874 µM, the LC50 (concentration causing 50% net cell killing) (SKOV-3; SK-OV-3, SKOV-3, cell killing (cytotoxic effect), read-out: LC50 SKOV-3) was 19.5 µM and the IC (TGI) (SKOV-3; SK-OV-3, SKOV-3) was 5.53 µM. The GI50 (SK-BR-3; Homo sapiens, SK-BR-3, SK-BR-3) was 0.0966 µM, the CC50 (SK-BR-3; Homo sapiens, SK-BR-3, SK-BR-3, read-out: LC50 SK-BR-3) was 13.6 µM and the IC (TGI) (SK-BR-3; Homo sapiens, SK-BR-3, SK-BR-3) was 1.09 µM. For the same molecule, the GI50 (IGROV; Homo sapiens) was 0.504 µM, the CC50 (IGROV; Homo sapiens, read-out: LC50 IGROV) was 13 µM and the IC (TGI) (IGROV; Homo sapiens, total growth inhibition (cytostatic effect), read-out: TGI IGROV) was 2.3 µM. The GI50 (HT-29; Homo sapiens, HT-29, HT-29) was 9.17 µM, the CC50 (HT-29; Homo sapiens, HT-29, HT-29, cell killing (cytotoxic effect), read-out: LC50 HT-29) was 19.5 µM and the IC (TGI) (HT-29; Homo sapiens, HT-29, HT-29, total growth inhibition (cytostatic effect)) was 19.5 µM. For the same molecule, the LC50 (concentration giving 50% net cell killing) ([1]; H-MEC-1 cells, H-MEC-1, cell killing (cytotoxic effect), read-out: LC50 H-MEC-1) was 19.5 µM, the GI50 (H-MEC-1) was 0.798 µM and the IC (TGI) (H-MEC-1) was 19.5 µM. It also gave a GI50 (A-549; A549, A-549) of 1.11 µM, a CC50 (A-549; A549, A-549, cell killing (cytotoxic effect), read-out: LC50 A-549) of 19.5 µM and an IC (TGI) (A-549; A549, A-549, total growth inhibition (cytostatic effect)) of 8.1 µM.
COc1cc(-c2c3n(c4c(=O)oc5cc(OC(=O)[C@@H](N)C(C)C)c(OC)cc5c24)CCc2cc(OC(=O)[C@@H](N)C(C)C)c(OC)cc2-3)ccc1OC(=O)[C@@H](N)C(C)C [Compound 37] showed a GI50 (PANC-1; PANC-1, PANC-1) of 2.15 µM, an IC (TGI) (PANC-1; PANC-1, PANC-1, TGI=total growth inhibition (cytostatic effect)) of 11 µM and a CC50 (PANC-1; PANC-1, read-out: LC50 PANC-1, PANC-1, LC=cell killing (cytotoxic effect)) of 11 µM. The GI50 (LoVo-Dox; LOVO-DOX) was 2.1 µM, the IC (TGI) (LoVo-Dox; LOVO-DOX, TGI=total growth inhibition (cytostatic effect)) was 4.6 µM and the CC50 (LoVo-Dox; read-out: LC50 LOVO-DOX, LOVO-DOX, LC=cell killing (cytotoxic effect)) was 10.1 µM. The GI50 (DU-145; DU-145) was 0.0677 µM, the “TGI DU-145” value (DU-145; DU-145, total growth inhibition (cytostatic effect)) was 1.55E−06 Molar and the CC50 (DU-145; Homo sapiens, DU-145, read-out: LC50 DU-145, DU-145) was 5.62 µM. The CC50 (LoVo; read-out: LC50 LOVO, LOVO, LC=cell killing (cytotoxic effect)) was 10.8 µM, the GI50 (LoVo) was 1.79 µM and the IC (TGI) (LoVo; TGI=total growth inhibition (cytostatic effect)) was 4.4 µM. It also gave a GI50 (LNCaP; LN-caP) of 0.593 µM, an IC (TGI) (LNCaP; LN-caP) of 2.18 µM and a CC50 (LNCaP; read-out: LC50 LN-caP, LN-caP) of 5.05 µM. The IC (TGI) (K-562; Homo sapiens, K562, K-562, TGI=total growth inhibition (cytostatic effect)) was 1.97 µM, the CC50 (K-562; Homo sapiens, K562, read-out: LC50 K-562, K-562, LC=cell killing (cytotoxic effect)) was 7.53 µM and the GI50 (K-562; K-562) was 0.0124 µM. For the same molecule, the IC (TGI) (SK-MEL-28; [3]) was 2.68 µM, the CC50 (SK-MEL-28; Homo sapiens, SK-MEL-28, read-out: LC50 MEL-28, MEL-28) was 7.95 µM and the GI50 (SK-MEL-28; MEL-28) was 0.623 µM. The GI50 (IGROV-ET; IGROV-ET) was 0.359 µM, the IC (TGI) (IGROV-ET; IGROV-ET) was 2.11 µM and the CC50 (IGROV-ET; read-out: LC50 IGROV-ET, IGROV-ET) was 8.04 µM. It also gave a GI50 (SKOV-3) of 1.62 µM, an LC50 (concentration causing 50% net cell killing) (SKOV-3; SK-OV-3, read-out: LC50 SKOV-3) of 7.87 µM and an IC (TGI) (SKOV-3; SK-OV-3, SKOV-3) of 3.58 µM. It also gave an IC (TGI) (SK-BR-3; Homo sapiens, SK-BR-3, SK-BR-3) of 2.12 µM, a CC50 (SK-BR-3; Homo sapiens, SK-BR-3, read-out: LC50 SK-BR-3, SK-BR-3) of 10.6 µM and a GI50 (SK-BR-3; SK-BR-3) of 0.0576 µM. The CC50 (IGROV; Homo sapiens, read-out: LC50 IGROV, IGROV) was 5.89 µM, the GI50 (IGROV) was 0.577 µM and the “TGI IGROV” value (IGROV; [2]) was 2.17E−06 Molar. It also gave a GI50 (HT-29; HT-29) of 0.0912 µM, an IC (TGI) (HT-29; Homo sapiens, HT-29, HT-29, TGI=total growth inhibition (cytostatic effect)) of 2 µM and a CC50 (HT-29; Homo sapiens, HT-29, read-out: LC50 HT-29, HT-29, LC=cell killing (cytotoxic effect)) of 10.9 µM. The LC50 (concentration giving 50% net cell killing) [1] was 4.73 µM, the GI50 (H-MEC-1) was 0.0974 µM and the IC (TGI) (H-MEC-1) was 1.26 µM. It also gave a GI50 (A-549; A549, A-549) of 1.72 µM, an IC (TGI) (A-549; A549, A-549, TGI=total growth inhibition (cytostatic effect)) of 3.8 µM and a CC50 (A-549; A549, read-out: LC50 A-549, A-549, LC=cell killing (cytotoxic effect)) of 8.38 µM.
